From PMC6259833, “Antioxidant Bibenzyl Derivatives from Notholaena nivea Desv” (Molecules, 2011)
Entries after “also recorded” stand apart in the source; their conditions may differ.

Experiments:
[1] = Coupled oxidation of β-carotene and linoleic acid (linoleic acid autoxidation assay); settings: 15 µg/mL; for Linoleic acid autoxidation inhibition (AA), 1 h: t = 60 min; for Linoleic acid autoxidation inhibition (AA), 1 h / Linoleic acid autoxidation inhibition (AA), 2 h: β-carotene bleaching, 50 °C; for Linoleic acid autoxidation inhibition (AA), 2 h: t = 120 min; for antioxidant activity in β-carotene/linoleic acid model (in words): compared with BHT standard
Protocol: Heat-induced oxidation of an aqueous emulsion system of β-carotene and linoleic acid was measured by the method described by Pratt (1992). A quantity of linoleic acid (20 mg) and Tween 20 (200 mg) were placed in a flask, and a solution of β-carotene (2 mg) in CHCl3 (10 mL) was added. After removal of CHCl3, oxygenated distilled water (50 mL) was added. Aliquots of each compound (200 µL), dissolved in ethanol to a 15 µg/mL solution, were added to each flask with shaking. Samples without test compounds were used as blanks and sample with 2,6 di-tert-butyl-4-methylphenol (BHT) was used as a control substance. Samples were subjected to the oxidation, by placing them in an oven at 50 °C for 3 hours. The absorbance was red at 470 nm at regular intervals to monitor the rate of bleaching of ß-carotene. The antioxidant activities was expressed as AA, calculated with the equation Inhibitory ratio (AA) = 100 [1−A0−At]/ A00−A0t; where A0 was the absorbance at the beginning of the incubation, with compound; At was the absorbance at the time t, with compound; A00 was the absorbance at beginning of the incubation, without compound; A0t the absorbance at the time t, without compound. Each experiment was performed in triplicate.

[2] = TEAC free radical scavenging assay (ABTS radical cation); settings: for TEAC: Trolox concentration with inhibition equivalent to a 1 mM solution of the compound, ABTS+., 734 nm, mean ± SD, triplicate
Protocol: The TEAC value is based on the ability of the antioxidant to scavenge the ABTS^+.. ABTS^+. cation radical was produced by the reaction between ABTS (7 mM) in water and potassium persulfate (2.45 mM), kept in the dark at room temperature for 12 hours. ABTS^+. is a blue-green cromogen with a characteristic absorption at 734 nm. The ABTS^+. solution was diluted with PBS, pH 7.4, to an absorbance of 0.70 at 734 nm and equilibrated at 30 °C.
Samples were diluted with methanol to have 0.3 mM, 0.5 mM, 1 mM, 1.5 mM, 2 mM solutions. The reaction was enhanced by the addition of diluted ABTS (1 mL) to 10 µL of each solution of sample or Trolox (standard), or […] of methanol (blank). The determination was repeated three times for each sample solution. The percentage inhibition of absorbance at 734 nm was calculated for each concentration in function of the blank’s absorbance. The percentage inhibition was plotted as a function of compound or standard concentration. The antioxidant activities of compounds 1-6 are expressed as TEAC, Trolox equivalent antioxidant activity. TEAC value is defined as the concentration of standard Trolox solution with equivalent percentage inhibition to a 1 mM concentration solution of the compound after investigation.

Caco-2 cells = assay: H2O2-induced cytotoxicity in differentiated Caco-2 cells, neutral red assay; type: cell-based, human; settings: for viability at 250 µM: compound 250 μmol/L; for protection against H2O2-induced toxicity (in words): compound 250 µmol/L, pretreatment before 10 mmol/L H2O2
Protocol: The Caco-2 cells strain was obtained from Prof. A. Leone research group (Dipartimento di Scienze Farmaceutiche, Sezione Biologica, Università degli Studi di Salerno, Fisciano, Italy) and used between passages 75 to 90. The cells were routinely maintained in DMEM, containing 200 mL/L FCS, 10 mL/L of 100× nonessential aminoacids, 2 mmol/L L-glutamine, 5 × 10^4 IU/L penicillin, 50 mg/L streptomycin at 37 °C in a 5% CO2 atmosphere at 90-100% relative humidity. Cell were grown in 10-cm petri dishes. For experiments, cells were seeded at a density of 90,000 cells/cm^2 in a Transwell insert, and the medium (0.1 mL in the insert and 0.8 mL in the well) was changed every 48 h. Fourteen to sixteen days after confluence, the integrity of the monolayer of differentiated cells was monitored according to the method of Hildago et al..
An iron-free medium (EMEM) was used for the oxidative stress induction experiments. The oxidative stress was induced in the apical compartment of the transwell insert by addition of H2O2. After 20 h of incubation, several oxidative stress markers were measured. To assay the capacity of these compounds to protect Caco-2 cells from ROM-mediated oxidative injury, cells were preincubated for 4 h with compounds, which had been added to the apical side of monolayer. After the end of preincubation time, the medium was changed before the addition of the of the oxidative stress-inducing agents.
We assessed the cytotoxicity of ROM on Caco-2 by the viability test of neutral red uptake, performed according to the procedure of Fautz et al.. After oxidative stress induction the medium in the insert was removed and replaced with 0.1 mL of fresh medium containing […] neutral red. At the end of 3 h of incubation, the medium was removed and cells were washed twice with PBS; finally the incorporated neutral red was released from cells by incubation for 15 min at room temperature in the presence of 1 mL of cell lysis buffer containing acetic acid (1%, v/v) and ethanol (50% v/v). To measure the dye taken up, the cell lysis products were centrifuged and supernatants spectrophotometrically measured at 540 nm.

xanthine oxidase (XOD) = target: T1, xanthine oxidase (XOD) (Bos taurus, UniProt P80457); assay: Xanthine oxidase inhibition assay (uric acid formation); type: biochemical; settings: for IC50: uric acid from xanthine, 295 nm, mean ± SD
T1 construct: purchased Sigma Aldrich (Gillingam, Dorset, U.K.)
T1 sequence (P80457 2-1332 limits assumed): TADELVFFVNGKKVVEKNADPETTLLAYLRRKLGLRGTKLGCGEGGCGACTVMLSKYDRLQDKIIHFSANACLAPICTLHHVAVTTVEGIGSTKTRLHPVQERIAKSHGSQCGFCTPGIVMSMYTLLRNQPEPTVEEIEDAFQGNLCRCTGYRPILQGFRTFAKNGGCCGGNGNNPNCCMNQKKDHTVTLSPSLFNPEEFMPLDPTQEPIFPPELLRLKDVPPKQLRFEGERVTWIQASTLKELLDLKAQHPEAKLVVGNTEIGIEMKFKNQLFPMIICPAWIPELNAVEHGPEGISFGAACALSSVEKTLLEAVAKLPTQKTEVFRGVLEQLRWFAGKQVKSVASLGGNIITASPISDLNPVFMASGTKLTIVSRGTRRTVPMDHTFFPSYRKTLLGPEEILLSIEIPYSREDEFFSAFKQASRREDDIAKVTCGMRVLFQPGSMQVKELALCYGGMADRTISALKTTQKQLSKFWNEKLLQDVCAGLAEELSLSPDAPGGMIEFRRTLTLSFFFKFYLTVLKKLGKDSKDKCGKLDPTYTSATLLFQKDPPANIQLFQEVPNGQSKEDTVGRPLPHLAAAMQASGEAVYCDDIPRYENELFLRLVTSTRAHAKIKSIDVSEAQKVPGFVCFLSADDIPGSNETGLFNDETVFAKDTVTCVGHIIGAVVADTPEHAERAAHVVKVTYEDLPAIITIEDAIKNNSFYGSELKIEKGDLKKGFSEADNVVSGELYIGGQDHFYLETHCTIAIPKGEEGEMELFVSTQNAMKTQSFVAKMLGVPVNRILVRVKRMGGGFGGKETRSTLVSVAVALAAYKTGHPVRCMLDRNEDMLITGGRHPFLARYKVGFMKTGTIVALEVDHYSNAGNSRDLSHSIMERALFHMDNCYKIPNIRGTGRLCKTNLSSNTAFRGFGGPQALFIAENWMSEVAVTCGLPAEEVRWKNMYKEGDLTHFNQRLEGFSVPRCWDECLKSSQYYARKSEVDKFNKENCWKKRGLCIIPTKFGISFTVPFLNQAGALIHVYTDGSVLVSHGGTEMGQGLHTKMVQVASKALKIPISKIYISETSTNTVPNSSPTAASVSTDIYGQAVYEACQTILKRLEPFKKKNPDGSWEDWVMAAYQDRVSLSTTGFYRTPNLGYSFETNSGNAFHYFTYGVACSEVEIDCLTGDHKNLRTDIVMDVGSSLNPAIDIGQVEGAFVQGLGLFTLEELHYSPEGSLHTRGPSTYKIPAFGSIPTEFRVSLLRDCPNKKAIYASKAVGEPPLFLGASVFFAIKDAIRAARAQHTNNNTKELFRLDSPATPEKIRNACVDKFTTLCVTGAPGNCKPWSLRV
Protocol: Xanthine oxidase inhibition activity was evaluated by the spectrophotometric measurement of the formation of uric acid by xanthine. A 100 µM solution of xanthine in 0.1 M phosphate buffer pH 7.8 with 0.04 units/mL of xanthine oxidase was incubated for 10 min at room temperature and read at 295 nm against a blank sample. Various concentrations of testing compounds were added to samples before the enzyme has been instilled and their effect on the generation of uric acid was used to calculate regression lines and IC50 values.

[3] = Superoxide anion enzymatic generation assay (xanthine/xanthine oxidase, NBT reduction); type: biochemical; settings: xanthine/XOD system, 560 nm, mean ± SD, read-out: Superoxide anion scavenging activity IC50
Protocol: Superoxide anion was generated in an enzymatic system by preparing a mixture of xanthine and xanthine oxidase. The reaction mixture included 0.1 mM EDTA, 50 µg/mL bovine serum albumine (BSA), 25 µM nitroblue tetrazolium, 0.1 mM xanthine and 3.3 × 10^−3 units xanthine oxidase (XOD) in 40 mM sodium carbonate buffer (pH 10.2) in a final volume of 3 mL. After incubation at 25 °C with increasing concentrations of samples, the absorbance of formazan produced was determined at 560 nm.
The inhibitory effect of samples on the generation of superoxide anion were estimated by the equation: Inhibitory ratio = (A0−A1) × 100/ A0; where A0 absorbance with no addition of sample and A1 absorbance with addition of sample. Inhibitory ratio for each sample was plotted as a function of the concentration, then was calculated the IC50 value, with the statistical method of linear regression.

[4] = Homo sapiens, Caco-2, 4 h preincubation, then 10 mmol/L H2O2 for 20 h, neutral red, read-out: cell viability

Compound	Linoleic acid autoxidation inhibition (AA), 1 h [1] [%]	Linoleic acid autoxidation inhibition (AA), 2 h [1] [%]	radical scavenging activity in ABTS/TEAC test (in words) [2]	TEAC [2] [mM]	viability at 250 µM (Caco-2 cells; [4]) [%]	viability at 500 µM (Caco-2 cells; Homo sapiens, Caco-2, compound 500 μmol/L, 4 h preincubation, then 10 mmol/L H2O2 for 20 h, neutral red, read-out: cell viability) [%]	protection against H2O2-induced toxicity (in words) (Caco-2 cells)	protection against H2O2-induced alterations (in words) (Caco-2 cells; compound 500 µmol/L preincubation)	activity as direct inhibitor of xanthine oxidase (in words) (xanthine oxidase (XOD))	IC50 (xanthine oxidase (XOD)) [µM]	antioxidant activity in β-carotene/linoleic acid model (in words) [1]	IC50 [3] [µM]	viability at 125 µM (Caco-2 cells; Homo sapiens, Caco-2, compound 125 μmol/L, 4 h preincubation, then 10 mmol/L H2O2 for 20 h, neutral red, read-out: cell viability) [%]	loss of cell viability (Caco-2 cells; 20 h of treatment with 10 mmol/L H2O2)	cell viability (Caco-2 cells; H2O2 10 mmol/L alone, 20 h, neutral red) [%]
Cc1cc(C(C)(C)C)c(O)c(C(C)(C)C)c1 [BHT, 2,6 di-tert-butyl-4-methylphenol, reference compound]	60.00	51.07													
COc1cc(O)c(C(=O)O)c(CCc2ccc(O)cc2)c1 [Compound 1, 5,12-dihydroxy-3-methoxy-dibenzyl-6-carboxylic acid]	32.60	11.70	most active	1.98 ± 0.05	80	88	inactive	prevented	no activity	> 100	highest activity after 1h; also recorded: moderate activity	96.93 ± 0.42			
COc1cc(CCc2ccc(O)cc2)c(C(=O)O)c(OC(C)=O)c1 [Compound 2, 5-acetyloxy-12-hydroxy-3-methoxybibenzyl-6-carboxylic acid]	28.51	19.16		1.38 ± 0.01					moderate activity	71.39 ± 0.45	moderate activity	81.11 ± 0.68			
COc1cc(CCc2ccc(O)cc2)cc(Oc2ccc(CCc3cc(OC)cc(O)c3C(=O)O)cc2)c1 [Compound 3, 12-O-[3’-(5’-methoxy-12’-hydroxy)-bibenzyl]-5-hydroxy-3-methoxybibenzyl-6-carboxylic acid]	0	0		1.22 ± 0.02					no activity	> 100	no activity	78.2 ± 1.15			
COc1cc(CCc2ccc(Oc3cc(CCc4ccc(Oc5cc(CCc6ccc(O)cc6)c(C(=O)O)c(OC)c5)cc4)c(C(=O)O)c(OC)c3)cc2)c(C(=O)O)c(OC)c1 [Compound 4, 3-O-{12’-[12’’-O-(3’’,5’’-dimethoxy-6’’-carboxybibenzyl)]-5’-methoxy-6’-carboxybibenzyl}-12-hydroxy-5-methoxybibenzyl-6-carboxylic acid]	0	0		1.5 ± 0.03					no activity	> 100	no activity	81.3 ± 2.01			
COc1ccc(CCc2cc(OC)cc(O)c2C(=O)O)cc1 [Compound 5, 5-hydroxy-3,12-dimethoxy-6-carboxybibenzyl]	26.56	19.72		1.21 ± 0.01					moderate activity	64 ± 2.13	moderate activity	58.4 ± 1.18			
COc1cc(O)cc(CCc2ccc(O)cc2)c1 [Compound 6, 3,12-dihydroxy-5-methoxybibenzyl]	29.35	7.31	most active compound	2.55 ± 0.02	98		no decrease in cell viability; also recorded: prevent H2O2-induced cytotoxicity; also recorded: prevented		no activity	> 100	moderate activity	83.3 ± 1.06	90		
OO [Compound H2O2, hydrogen peroxide, reference compound]														about 25%	75
Oc1ccc(CCc2cc(O)cc(O)c2)cc1 [Dihydroresveratrol, reference compound]	16.11	20.12		2.3 ± 0.07						> 100	lower activity	60.9 ± 1.12			
O=c1c(O)c(-c2ccc(O)c(O)c2)oc2cc(O)cc(O)c12 [Quercetin, quercetin, reference compound]				2.91 ± 0.02											
